Values after ≈ are worked out from the molar mass of the structure shown. Values joined by “and” are separate entries in the source; they are usually repeats but may differ in a detail not shown here. Identical values can stand only once. Like-named read-outs stand apart in the source and are kept apart here. Marks after values point to notes of the source that are not given here.
Experiments:
physchem [1] = conditions: pH 7.4
physchem [2] = conditions: pH 7.4; remark: listed apart in the source
SK-OV-3 = assay: cells; format: cell-based, human
physchem [3] = assay: physchem
[4] = for FaSSGF Concentration, replicates 1-3: pH 1.6, individual replicates; for FaSSIF Concentration, replicates 1-3 / FeSSIF Concentration, replicates 1-3: pH 6.5, individual replicates
in vitro [5] = format: in vitro ADME; conditions: mouse; for hepatocyte CLint at 1 h, 1 µM: hepatocytes, n = 1, read-out: Mouse Heps CLint; for Pred. in vivo CLu from Heps: fraction unbound in assay assumed 0.4 or 0.2
[6] = Free fraction in CellTiter-Blue assay medium (dialysis); format: in vitro ADME; conditions: dialysis from CellTiter-Blue assay medium; 90% CI
[7] = Plasma protein binding and blood-to-plasma ratio; conditions: for fub: BALB/c mouse blood, fub = fup/B:P; for Plasma, fup: BALB/c mouse, 90% CI
Mouse blood PK (BALB/c) = conditions: for Fmax / Free Cav^0–24h / CLu / Vdu / AUC / iv Cltb: BALB/c mice; for Free Cav^0–24h: AUC^inf/24*fub; for CLu: CLtb/fub; for Vdu: Vss/fub; for Vd / half-life at 24 h: iv; for iv Cltb: iv 5 mg/kg (18: 1 mg/kg)
[8] = iv PK in CF1 wild-type and P-gp-knockout mice; format: in vivo, mouse; conditions: mouse, whole blood, iv, 5 mg/kg, read-out: Vss
P-gp = assay: iv PK in CF1 wild-type and P-gp-knockout mice; format: in vivo, mouse; conditions: 5 mg/kg iv, 90% CI
in vitro [9] = format: in vitro ADME; conditions: male, Sprague Dawley, rat, microsomes, pH 7.4; n = 1, fraction unbound assumed 1; read-out: Microsome Clint, rat (RLM)
in vitro [10] = format: in vitro ADME, mouse; conditions: male, CD1, mouse, microsomes, pH 7.4; n = 1, fraction unbound assumed 1; read-out: Microsome Clint, mouse (MLM)
in vitro [11] = format: in vitro ADME; conditions: both sexes, human, microsomes, pH 7.4; n = 1, fraction unbound assumed 1; read-out: Microsome Clint, human (HLM)
[12] = Homo sapiens, SK-OV-3, 96 h; read-out: SK-OV-3 pGI50 ± SEM (n) (converted)
[13] = Homo sapiens, SK-OV-3; 96 h, CellTiter-Blue, geometric mean; read-out: SK-OV-3 GI50
[14] = pH 1.6, Thermodynamic solubility FaSSGF (mean), pH 1.6, 37 °C, 1 mg/mL (top limit of assay)
[15] = pH 6.5, Thermodynamic solubility FaSSIF (mean), pH 6.5, 37 °C, 1 mg/mL
[16] = female, BALB/c, mouse, in vivo, po, 5 mg/kg
[17] = female, BALB/c, mouse, in vivo, po, 5 mg/kg, AUCu^0–6h, AUC*fub
[18] = female, BALB/c, mouse, in vivo, po, 5 mg/kg, po AUC^0–6h, po 5 mg/kg, 90% CI
[19] = female, BALB/c, mouse, whole blood, po, 5 mg/kg

Cc1ccc(NC(=O)c2ccc3c(c2)OCCO3)cc1NC(=O)c1ccc2nc(CN(C)C)ccc2c1 [Compound 12, N-(5-(2,3-Dihydrobenzo[b][1,4]dioxine-6-carboxamido)-2-methylphenyl)-2-((dimethylamino)methyl)quinoline-6-carboxamide]
solubility kinetic at 2 h, 100 µM (physchem [1]): 50 µM (≈ 24.8 µg/mL) | chromatographic logD (physchem [2]): 1.4 | GI50 (SK-OV-3; [12]): 11.7 nM | GI50 (SK-OV-3; [13]): 12 nM

Cc1ccc(NC(=O)c2ccc3c(c2)OCCO3)cc1NC(=O)c1ccc2nc(CN3CCCCC3)ccc2c1 [Compound 14, N-(5-(2,3-Dihydrobenzo[b][1,4]dioxine-6-carboxamido)-2-methylphenyl)-2-(piperidin-1-ylmethyl)quinoline-6-carboxamide]
solubility kinetic at 2 h, 100 µM (physchem [1]): 2 µM (≈ 1.07 µg/mL) | GI50 (SK-OV-3; [12]): 21.9 nM | GI50 (SK-OV-3; [13]): 73 nM

O=c1[nH]c2ccccc2n1C1CCN(CCCC(c2ccc(F)cc2)c2ccc(F)cc2)CC1 [Pimozide]
solubility thermodynamic (physchem [3]; [14]): 90 µg/mL (≈ 195 µM) | solubility thermodynamic (physchem [3]; [15]): 4 µg/mL (≈ 8.67 µM) | FaSSGF Concentration, replicates 1-3 [4]: 0.087 mg/mL and 0.092 mg/mL and 0.090 mg/mL | FaSSIF Concentration, replicates 1-3 [4]: 0.004 mg/mL and 0.003 mg/mL | FeSSIF Concentration, replicates 1-3 [4]: 0.018 mg/mL and 0.008 mg/mL and 0.007 mg/mL

CCN1CCN(Cc2ccc3cc(C(=O)Nc4cc(NC(=O)c5ccc6c(c5)OCCO6)ccc4Cl)ccc3n2)CC1 [Compound 21, N-(2-Chloro-5-(2,3-dihydrobenzo[b][1,4]dioxine-6-carboxamido)phenyl)-2-((4-ethylpiperazin-1-yl)methyl)quinoline-6-carboxamide]
hepatocyte CLint at 1 h, 1 µM (in vitro [5]): 71 µL/min/1e6 cells | Pred. in vivo CLu from Heps (in vitro [5]): 1400 ^i mL/min/kg | Assay medium, fua [6]: 0.15 (0.15-0.14) | solubility kinetic at 2 h, 100 µM (physchem [1]): 50 µM (≈ 29.3 µg/mL) | fub [7]: 0.0053 | Plasma, fup [7]: 0.013 (0.015-0.011) | chromatographic logD (physchem [2]): 2.2 | Fmax (Mouse blood PK (BALB/c)): 69% | Free Cav^0–24h (Mouse blood PK (BALB/c); po): 1.3 nM | CLu (Mouse blood PK (BALB/c)): 5300 mL/min/kg | Vdu (Mouse blood PK (BALB/c)): 1100 L/kg | bioavailability (Mouse blood PK (BALB/c); female, BALB/c, mouse, in vivo): 100% | Vd (Mouse blood PK (BALB/c); female, BALB/c, mouse, in vivo): 5.7 L/kg | half-life at 24 h (Mouse blood PK (BALB/c); female, BALB/c, mouse, in vivo, 5 mg/kg): 2.3 h | Cmax (Mouse blood PK (BALB/c); [16]): 880 nM | Tmax at 24 h (Mouse blood PK (BALB/c); [16]): 1.7 h | bioavailability (Mouse blood PK (BALB/c); [16]): 96% | AUC (Mouse blood PK (BALB/c); [17]): 0.02 µM·h | AUC (Mouse blood PK (BALB/c); [18]): 3.9 µM·h | GI50 (SK-OV-3; [12]): 11 nM | GI50 (SK-OV-3; [13]): 11 nM

Cc1ccc(NC(=O)c2ccc3c(c2)OCCO3)cc1NC(=O)c1ccc2nc(OCCN3CCCCC3)ccc2c1 [Compound 17, N-(5-(2,3-Dihydrobenzo[b][1,4]dioxine-6-carboxamido)-2-methylphenyl)-2-(2-(piperidin-1-yl)ethoxy)quinoline-6-carboxamide]
fub [7]: 0.015 | Plasma, fup [7]: 0.022 (0.027-0.017) | iv Cltb (Mouse blood PK (BALB/c); 90% CI): 40 (48–32) mL/min/kg | Free Cav^0–24h (Mouse blood PK (BALB/c); po): 0.83 nM | CLu (Mouse blood PK (BALB/c)): 2700 mL/min/kg | Vdu (Mouse blood PK (BALB/c)): 340 L/kg | Tmax at 24 h (Mouse blood PK (BALB/c); [16]): 2.3 h | bioavailability at 24 h (Mouse blood PK (BALB/c); [16]): 24% | AUC (Mouse blood PK (BALB/c); [17]): 0.012 µM·h | AUC (Mouse blood PK (BALB/c); [18]): 0.83 µM·h | Vd (Mouse blood PK (BALB/c); female, BALB/c, mouse, whole blood): 5.1 L/kg | Cmax (Mouse blood PK (BALB/c); [19]): 180 nM | Tmax (Mouse blood PK (BALB/c); [19]): 2 h | GI50 (SK-OV-3; Homo sapiens, SK-OV-3, 96 h, read-out: SK-OV-3 GI50): 1.1 nM | GI50 (SK-OV-3; Homo sapiens, SK-OV-3, 96 h, read-out: SK-OV-3 pGI50 ± SEM (n) (converted)): 1.07 nM | Vd ([8]; CF1 mdr1a P-gp deficient (CF1-Abcb1amds), CF1^PGP-KO mice): 3.6 L/kg | Vd ([8]; CF1 wild type, CF1^WT mice): 4.7 L/kg | Cltb (P-gp; CF1^PGP-KO mice): 38 (43-37) mL/min/kg | Cltb (P-gp; CF1^WT mice): 47 (62-35) mL/min/kg

Cc1ccc(NC(=O)c2ccc3c(c2)OCCO3)cc1NC(=O)c1ccc2nc(CN3CCCC3)ccc2c1 [Compound 11, N-(5-(2,3-Dihydrobenzo[b][1,4]dioxine-6-carboxamido)-2-methylphenyl)-2-(pyrrolidin-1-ylmethyl)quinoline-6-carboxamide]
microsomal CLint at 0.75 h, 1 µM (in vitro [9]): 20 µL/min/mg | solubility kinetic at 2 h, 100 µM (physchem [1]): 40 µM (≈ 20.9 µg/mL) | chromatographic logD (physchem [2]): 1.9 | GI50 (SK-OV-3; [12]): 6.17 nM | GI50 (SK-OV-3; [13]): 6.2 nM | microsomal CLint (in vitro [10]): 21 µL/min/mg | microsomal CLint at 0.75 h, 1 µM (in vitro [11]): 23 µL/min/mg

Cc1ccc(NC(=O)c2ccc3c(c2)OCCO3)cc1NC(=O)c1ccc2nc(CN3CCCC3C)ccc2c1 (racemic) [Compound 13, Racemic-N-(5-(2,3-Dihydrobenzo[b][1,4]dioxine-6-carboxamido)-2-methylphenyl)-2-((2-methylpyrrolidin-1-yl)methyl)quinoline-6-carboxamide]
solubility kinetic at 2 h, 100 µM (physchem [1]): 50 µM (≈ 26.8 µg/mL) | chromatographic logD (physchem [2]): 2.3 | GI50 (SK-OV-3; [12]): 7.08 nM | GI50 (SK-OV-3; [13]): 7.1 nM

CC(C)N1CCN(Cc2ccc3cc(C(=O)Nc4cc(NC(=O)c5ccc6c(c5)OCCO6)ccc4Cl)ccc3n2)CC1 [Compound 18, N-(2-Chloro-5-(2,3-dihydrobenzo[b][1,4]dioxine-6-carboxamido)phenyl)-2-((4-isopropylpiperazin-1-yl)methyl)quinoline-6-carboxamide]
hepatocyte CLint at 1 h, 1 µM (in vitro [5]): 28 µL/min/1e6 cells | Pred. in vivo CLu from Heps (in vitro [5]): 930 ^i mL/min/kg | Assay medium, fua [6]: 0.16 (0.18-0.15) | solubility kinetic at 2 h, 100 µM (physchem [1]): 70 µM (≈ 42 µg/mL) | fub [7]: 0.011 | Plasma, fup [7]: 0.012 (0.014-0.010) | chromatographic logD (physchem [2]): 2.3 | Fmax (Mouse blood PK (BALB/c)): 63% | iv Cltb (Mouse blood PK (BALB/c); 90% CI): 33 (35–31) mL/min/kg | Free Cav^0–24h (Mouse blood PK (BALB/c); po): 1.6 nM | CLu (Mouse blood PK (BALB/c)): 3000 mL/min/kg | Vdu (Mouse blood PK (BALB/c)): 450 L/kg | Vd (Mouse blood PK (BALB/c); female, BALB/c, mouse, in vivo): 4.9 L/kg | half-life at 24 h (Mouse blood PK (BALB/c); female, BALB/c, mouse, in vivo, 1 mg/kg): 2 h | Cmax (Mouse blood PK (BALB/c); [16]): 550 nM | Tmax at 24 h (Mouse blood PK (BALB/c); [16]): 1.7 h | bioavailability at 24 h (Mouse blood PK (BALB/c); [16]): 63% | AUC (Mouse blood PK (BALB/c); [17]): 0.026 µM·h | AUC (Mouse blood PK (BALB/c); [18]): 2.4 µM·h | GI50 (SK-OV-3; [12]): 14.8 nM | GI50 (SK-OV-3; [13]): 15 nM

Cc1ccc(NC(=O)c2ccc3c(c2)OCCO3)cc1NC(=O)c1ccc2nc(CN3CCN(C)CC3)ccc2c1 [Compound 15, N-(5-(2,3-Dihydrobenzo[b][1,4]dioxine-6-carboxamido)-2-methylphenyl)-2-((4-methylpiperazin-1-yl)methyl)quinoline-6-carboxamide]
microsomal CLint (in vitro [9]): 33 µL/min/mg | solubility kinetic at 2 h, 100 µM (physchem [1]): 80 µM (≈ 44.1 µg/mL) | chromatographic logD (physchem [2]): 1.6 | GI50 (SK-OV-3; [12]): 9.55 nM | GI50 (SK-OV-3; [13]): 9.5 nM | microsomal CLint (in vitro [10]): 21 µL/min/mg | microsomal CLint (in vitro [11]): 33 µL/min/mg

CN1CCN(Cc2ccc3cc(C(=O)Nc4cc(NC(=O)c5ccc6c(c5)OCCO6)ccc4Cl)ccc3n2)CC1 [Compound 20, N-(2-Chloro-5-(2,3-dihydrobenzo[b][1,4]dioxine-6-carboxamido)phenyl)-2-((4-methylpiperazin-1-yl)methyl)quinoline-6-carboxamide]
solubility kinetic at 2 h, 100 µM (physchem [1]): 30 µM (≈ 17.2 µg/mL) | chromatographic logD (physchem [2]): 2.1 | GI50 (SK-OV-3; [12]): 19.1 nM | GI50 (SK-OV-3; [13]): 19 nM

CC(C)NCC(O)COc1cccc2ccccc12 (stereo not drawn) [Propranolol]
solubility thermodynamic (physchem [3]; [14]): 1110 µg/mL (≈ 4300 µM) | solubility thermodynamic (physchem [3]; [15]): 944 µg/mL (≈ 3640 µM) | FaSSGF Concentration, replicates 1-3 [4]: 1.246 mg/mL and 1.094 mg/mL and 1.002 mg/mL | FaSSIF Concentration, replicates 1-3 [4]: 0.853 mg/mL and 1.047 mg/mL and 0.931 mg/mL | FeSSIF Concentration, replicates 1-3 [4]: 1.669 mg/mL and 1.812 mg/mL and 1.465 mg/mL

O=C(Nc1ccc(Cl)c(NC(=O)c2ccc3nc(CN4CCNCC4)ccc3c2)c1)c1ccc2c(c1)OCCO2 [Compound 19, N-(2-Chloro-5-(2,3-dihydrobenzo[b][1,4]dioxine-6-carboxamido)phenyl)-2-(piperazin-1-ylmethyl)quinoline-6-carboxamide]
GI50 (SK-OV-3; [12]): 11.5 nM | GI50 (SK-OV-3; [13]): 12 nM

Reference: paper PMC10150365 (Journal of Medicinal Chemistry, 2023)
